This passage reports IC50 results from patent US12378224B2 (Dong-A Socio Holdings Co., Ltd., priority 2016, dated 2025).

By IC50 is commonly meant the concentration at which inhibition is half-maximal. Lower therefore signals greater potency in that assay.

This experiment has as its target human c-MER catalytic domain (Homo sapiens (Human), UniProt Q12866). The experiment is described as follows: TR-FRET Kinase Activity Biochemical Assay (LanthaScreen). The note with it: 10 uM ATP, 1 hour, kinase not given. The method in brief:
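Recombinant human c-MER catalytic domain phosphorylated fluorescein-labeled poly-GT substrate. The reaction was stopped with 10 mM EDTA, then 2 nM Tb-labeled anti-phosphotyrosine antibody was added for 30 min. Kinase activity was taken from the 495/520 nm TR-FRET emission ratio after 340 nm excitation.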
On the technique in general: TR-FRET usually uses a lanthanide donor and a delayed reading to cut background.

Chain of human c-MER catalytic domain (Q12866 587-858): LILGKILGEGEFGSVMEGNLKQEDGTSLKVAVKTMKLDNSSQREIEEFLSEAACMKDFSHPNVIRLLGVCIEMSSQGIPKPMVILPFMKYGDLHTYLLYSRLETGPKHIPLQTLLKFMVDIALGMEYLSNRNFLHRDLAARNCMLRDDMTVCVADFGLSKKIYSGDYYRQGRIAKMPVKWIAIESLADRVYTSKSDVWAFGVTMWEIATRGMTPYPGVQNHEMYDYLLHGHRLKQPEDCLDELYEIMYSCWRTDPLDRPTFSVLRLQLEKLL

`CN1CCN(Cc2cccc(N3CC[C@H](OC(=O)N4CC[C@@H](NC(=O)c5cc(-c6cnn(C)c6)cnc5N)C4)C3)c2)CC1` [Example 626, (S)-1-(3-((4-methylpiperazin-1-yl)methyl)phenyl)pyrrolidin-3-yl (R)-3-(2-amino-5-(1-methyl-1H-pyrazol-4-yl)nicotinamido)pyrrolidine-1-carboxylate] showed an IC50 of over 1000 nM.
With `CN1CCN(Cc2ccc(-c3cc(CN4CC[C@@H](NC(=O)c5cc(-c6cnn(C)c6)cnc5N)C4)ccc3F)cc2)CC1` [Example 633, (R)-2-amino-N-(1-((6-fluoro-4′-((4-methylpiperazin-1-yl)methyl)-[1,1′-biphenyl]-3-yl)methyl)pyrrolidin-3-yl)-5-(1-methyl-1H-pyrazol-4-yl)nicotinamide] the figure was 100 to 1000 nM; with `Cn1cc(-c2cnc(N)c(C(=O)N[C@@H]3CCN(C(=O)c4ccc(-c5ccc(S(=O)(=O)N6CCC6)cc5)cc4)C3)c2)cn1` [Example 660, (R)-2-amino-N-(1-(4′-(azetidin-1-ylsulfonyl)-[1,1′-biphenyl]-4-carbonyl)pyrrolidin-3-yl)-5-(1-methyl-1H-pyrazol-4-yl)nicotinamide], 100 to 1000 nM; with `CSc1ccc(-c2ccc(C(=O)N3CC[C@@H](NC(=O)c4cc(-c5cnn(C)c5)cnc4N)C3)cc2)cc1` [Example 665, (R)-2-amino-5-(1-methyl-1H-pyrazol-4-yl)-N-(1-(4′-(methylthio)-[1,1′-biphenyl]-4-carbonyl)pyrrolidin-3-yl)nicotinamide], 100 to 1000 nM.
`CCSc1ccc(-c2ccc(C(=O)N3CC[C@@H](NC(=O)c4cc(-c5cnn(C)c5)cnc4N)C3)cc2)cc1` [Example 666, (R)-2-amino-N-(1-(4′-(ethylthio)-[1,1′-biphenyl]-4-carbonyl)pyrrolidin-3-yl)-5-(1-methyl-1H-pyrazol-4-yl)nicotinamide] displayed an IC50 of 100 to 1000 nM.
The molecule `Cn1cc(-c2cnc(N)c(C(=O)NC3CN(C(=O)c4cccc(-c5ccccc5)c4)C3)c2)cn1` [Example 670, N-(1-([1,1′-biphenyl]-3-carbonyl)azetidin-3-yl)-2-amino-5-(1-methyl-1H-pyrazol-4-yl)nicotinamide] returned an IC50 of over 1000 nM.
The molecule `Cn1cc(-c2cnc(N)c(C(=O)NC3(CO)CCN(C(=O)c4ccc(-c5ccccc5)cc4)C3)c2)cn1` (stereo not drawn) [Example 671, N-(1-([1,1′-biphenyl]-4-carbonyl)-3-(hydroxymethyl)pyrrolidin-3-yl)-2-amino-5-(1-methyl-1H-pyrazol-4-yl)nicotinamide] displayed an IC50 of 10 to 100 nM.
Take `Cn1cc(-c2cnc(N)c(C(=O)NC3(CO)CCN(C(=O)c4cccc(-c5ccccc5)c4)C3)c2)cn1` (stereo not drawn) [Example 672, N-(1-([1,1′-biphenyl]-3-carbonyl)-3-(hydroxymethyl)pyrrolidin-3-yl)-2-amino-5-(1-methyl-1H-pyrazol-4-yl)nicotinamide]: the IC50 is over 1000 nM.
The molecule `Cn1cc(-c2cnc(N)c(C(=O)N[C@@H]3CCN(C(=O)c4ccc(-c5ccc(/C=C/C(=O)O)cc5)cc4)C3)c2)cn1` [Example 677, (R,E)-3-(4′-(3-(2-amino-5-(1-methyl-1H-pyrazol-4-yl)nicotinamido)pyrrolidine-1-carbonyl)-[1,1′-biphenyl]-4-yl) acrylic acid] displayed an IC50 of 10 to 100 nM.
Consider `Cn1cc(-c2cnc(N)c(C(=O)N[C@@H]3CCN(C(=O)c4ccc(-c5ccc(CCC(=O)O)cc5)cc4)C3)c2)cn1` [Example 678, (R)-3-(4′-(3-(2-amino-5-(1-methyl-1H-pyrazol-4-yl)nicotinamido)pyrrolidine-1-carbonyl)-[1,1′-biphenyl]-4-yl) propanoic acid], for which the IC50 is 100 to 1000 nM.
Turning to `CCOC(=O)C1CN(C(=O)c2ccc(-c3ccccc3)cc2)CC1NC(=O)c1cc(-c2cnn(C)c2)cnc1N` (stereo not drawn) [Example 687, ethyl 1-([1,1′-biphenyl]-4-carbonyl)-4-(2-amino-5-(1-methyl-1H-pyrazol-4-yl)nicotinamido)pyrrolidine-3-carboxylate], the IC50 is over 1000 nM.
Regarding `COC(=O)[C@H]1C[C@@H](NC(=O)c2cc(-c3cnn(C)c3)cnc2N)CN1C(=O)c1ccc(-c2ccc(F)cc2Cl)cc1` [Example 689, methyl (2R,4R)-4-(2-amino-5-(1-methyl-1H-pyrazol-4-yl)nicotinamido)-1-(2′-chloro-4′-fluoro-[1,1′-biphenyl]-4-carbonyl)pyrrolidine-2-carboxylate], the IC50 was over 1000 nM.
Regarding `CCOC(=O)C1CN(C(=O)c2ccc(-c3ccc(F)cc3Cl)cc2)CC1NC(=O)c1cc(-c2cnn(C)c2)cnc1N` (stereo not drawn) [Example 690, ethyl 4-(2-amino-5-(1-methyl-1H-pyrazol-4-yl)nicotinamido)-1-(2′-chloro-4′-fluoro-[1,1′-biphenyl]-4-carbonyl)pyrrolidine-3-carboxylate], the IC50 is over 1000 nM.
Molecule `Cn1cc(-c2cnc(N)c(C(=O)N[C@@H]3CCN(C(=O)c4cccc(-c5cnn(S(=O)(=O)c6ccccc6)c5)c4)C3)c2)cn1` [Example 717, (R)-2-amino-5-(1-methyl-1H-pyrazol-4-yl)-N-(1-(3-(1-(phenylsulfonyl)-1H-pyrazol-4-yl)benzoyl)pyrrolidin-3-yl)nicotinamide] came in with an IC50 of over 1000 nM.
`Cn1cc(-c2cnc(N)c(C(=O)N[C@H]3CN(C(=O)c4ccc(Br)cc4)C[C@@H]3O)c2)cn1` [Example 732, 2-amino-N-((3S,4S)-1-(4-bromobenzoyl)-4-hydroxypyrrolidin-3-yl)-5-(1-methyl-1H-pyrazol-4-yl)nicotinamide] returned an IC50 of over 1000 nM.
As to `Cn1cc(-c2cnc(N)c(C(=O)N[C@H]3CN(C(=O)c4ccc(-c5ccccc5)cc4)C[C@@H]3O)c2)cn1` [Example 742, N-((3S,4S)-1-([1,1′-biphenyl]-4-carbonyl)-4-hydroxypyrrolidin-3-yl)-2-amino-5-(1-methyl-1H-pyrazol-4-yl)nicotinamide], the IC50 lay in the range of 100 to 1000 nM.
Molecule `Cn1cc(-c2cnc(N)c(C(=O)N[C@@H]3CN(C(=O)c4ccc(-c5ccccc5)cc4)C[C@@H]3O)c2)cn1` [Example 743, N-((3R,4S)-1-([1,1′-biphenyl]-4-carbonyl)-4-hydroxypyrrolidin-3-yl)-2-amino-5-(1-methyl-1H-pyrazol-4-yl)nicotinamide] gave an IC50 of over 1000 nM.
The molecule `Cn1cc(-c2cnc(N)c(C(=O)N[C@@H]3CCN(C(=O)c4ccc(-c5ccc(F)cc5Cl)cc4)C3)n2)cn1` [Example 745, (R)-3-amino-N-(1-(2′-chloro-4′-fluoro-[1,1′-biphenyl]-4-carbonyl)pyrrolidin-3-yl)-6-(1-methyl-1H-pyrazol-4-yl)pyrazine-2-carboxamide] registered an IC50 of 10 to 100 nM.
`CN1CCN(c2cc(-c3cnc(N)c(C(=O)N[C@@H]4CCN(C(=O)c5ccc(-c6ccc(F)cc6Cl)cc5)C4)c3)ccn2)CC1` [Example 780, (R)-6-amino-N-(1-(2′-chloro-4′-fluoro-[1,1′-biphenyl]-4-carbonyl)pyrrolidin-3-yl)-2′-(4-methylpiperazin-1-yl) -[3,4′-bipyridine]-5-carboxamide] yielded an IC50 of under 10 nM.
`Nc1ncc(-c2ccc(N3CCOCC3)cc2)cc1C(=O)N[C@@H]1CCN(C(=O)c2ccc(-c3ccc(F)cc3Cl)cc2)C1` [Example 782, (R)-2-amino-N-(1-(2′-chloro-4′-fluoro-[1,1′-biphenyl]-4-carbonyl)pyrrolidin-3-yl)-5-(4-morpholinophenyl)nicotinamide] gave an IC50 of 10 to 100 nM.
Molecule `Cn1cc(-c2cnc3[nH]nc(N[C@@H]4CCN(C(=O)c5ccc(-c6ccc7c(c6)CCCN7)cc5)C4)c3c2)cn1` [Example 790, (R)-(3-((5-(1-methyl-1H-pyrazol-4-yl)-1H-pyrazolo[3,4-b]pyridin-3-yl)amino)pyrrolidin-1-yl)(4-(1,2,3,4-tetrahydroquinolin-6-yl)phenyl)methanone] registered an IC50 of 10 to 100 nM.
`Cn1cc(-c2cnc3[nH]nc(N[C@@H]4CCN(C(=O)c5ccc(Oc6ccccc6)cc5)C4)c3c2)cn1` [Example 791, (R)-(3-((5-(1-methyl-1H-pyrazol-4-yl)-1H-pyrazolo[3,4-b]pyridin-3-yl)amino)pyrrolidin-1-yl)(4-phenoxyphenyl)methanone] gave an IC50 of 100 to 1000 nM.
Then `Cn1cc(-c2cnc3[nH]nc(N[C@@H]4CCN(C(=O)c5ccc(-c6ccc(OC7CCNCC7)cc6)cc5)C4)c3c2)cn1` [Example 792, (R)-(3-((5-(1-methyl-1H-pyrazol-4-yl)-1H-pyrazolo[3,4-b]pyridin-3-yl)amino)pyrrolidin-1-yl)(4′-(piperidin-4-yloxy)-[1,1′-biphenyl]-4-yl)methanone], with under 10 nM; and `Cn1cc(-c2cnc3[nH]nc(N[C@@H]4CCN(C(=O)c5ccc(-c6ccc(CN7CCOCC7)cc6)cc5)C4)c3c2)cn1` [Example 793, (R)-(3-((5-(1-methyl-1H-pyrazol-4-yl)-1H-pyrazolo[3,4-b]pyridin-3-yl)amino)pyrrolidin-1-yl)(4′-(morpholinomethyl)-[1,1′-biphenyl]-4-yl)methanone], with 100 to 1000 nM.
In turn, `Cn1cc(-c2cnc(N)c(C(=O)N[C@@H]3CCN(C(=O)c4ccc(-c5ccc(C(C)(C)N)cc5)cc4)C3)c2)cn1` [Example 801, (R)-2-amino-N-(1-(4′-(2-aminopropan-2-yl)-[1,1′-biphenyl]-4-carbonyl)pyrrolidin-3-yl)-5-(1-methyl-1H-pyrazol-4-yl)nicotinamide] displayed an IC50 of 100 to 1000 nM.
Regarding `Cn1cc(-c2cnc(N)c(C(=O)N[C@@H]3CCN(C(=O)c4ccc(-c5ccc(Nc6ccc(N)cc6)cc5)cc4)C3)c2)cn1` [Example 815, (R)-2-amino-N-(1-(4′-((4-aminophenyl)amino)-[1,1′-biphenyl]-4-carbonyl)pyrrolidin-3-yl)-5-(1-methyl-1H-pyrazol-4-yl)nicotinamide], the IC50 was in the range of 10 to 100 nM.
Turning to `CC(/C=C/c1ccc(C(=O)N2CC[C@@H](NC(=O)c3cc(-c4cnn(C)c4)cnc3N)C2)cc1)N1CCN(C)CC1` (stereo partly drawn) [Example 822, 2-amino-5-(1-methyl-1H-pyrazol-4-yl)-N-((3R)-1-(4-((E)-3-(4-methylpiperazin-1-yl)but-1-en-1-yl)benzoyl)pyrrolidin-3-yl)nicotinamide], the IC50 was under 10 nM.
